Experiments:
[1] = tested on: RBCs; test: Column agglutination of RBCs transformed with sterile-filtered vs unfiltered synthetic glycolipid; assay type: cell-based; details: for Column agglutination: 0.01 mg/mL, anti-A BioClone
Text: Some Atri-sp-Ad-DOPE (I) had been sterile-filtered through a 0.2 μm filter. To investigate whether transformation would be the same with this product a comparative trial was done.

[2] = tested on: RBCs; test: Insertion efficiency: post-transformation supernatant solutions, tube serology; assay type: cell-based
Method: The post-transformation supernatant solutions (from Atri-sp-Ad-DOPE (I) at 0.08 mg/mL, 0.05 mg/mL and 0.03 mg/mL, and Btri-sp-Ad-DOPE (VI) at 0.6 mg/mL, 20 μL) were added neat and in a 1:2 dilution to washed, packed RBCs (60 μL). The tubes were incubated in a 37° C. waterbath for one hour, with mixing taking place every 15 minutes.
The transformed RBCs were washed 3× with PBS and then suspended in Cellstab™ at the appropriate concentration for serology testing.

[3] = tested on: group O red blood cells (RBCs); test: Tube serology of group O RBCs transformed at 37° C. with synthetic glycolipids; assay type: cell-based, human; design: Albaclone anti-A, Tube / Bioclone anti-A, Tube: scale not given here
Method: (§1) Washed packed group O red blood cells (RBCs) (3 parts by volume) and the synthetic glycolipid solution (1 part by volume, varying concentrations) were added to an eppendorf tube. The tube was incubated in a 37° C. waterbath for one hour, mixing every 15 minutes. […]
(§2) Tube serology and Diamed gel-card results for RBCs transformed with the different synthetic molecule constructs are provided in Table 38. Results for the stability of the RBCs transformed with the different synthetic glycolipids at different concentrations are provided in Tables 39 to 44.

[4] = tested on: group O red blood cells (RBCs); test: Diamed gel-card agglutination of group O RBCs transformed at 37° C. with synthetic glycolipids; assay type: cell-based, human; design: scale not given here; details: for Agglutination, Diamed gel-cards, Albaclone anti-A / Agglutination, Diamed gel-cards, Bioclone anti-A: 0.025 mg/mL
Method: as §1, §2

[5] = tested on: RBCs; test: Evaluation of insertion of different lipid tails by agglutination with the relevant antisera; assay type: cell-based; design: scale not given here
Text: Transformation of RBCs with synthetic glycolipids with different lipid tails was first evaluated (Tables 22 and 24).

Structure (SMILES): CCCCCCCC/C=C\CCCCCCCC(=O)OC[C@H](COP(=O)(O)OCCNC(=O)CCCCC(=O)NCCCO[C@@H]1O[C@H](CO)[C@H](O)[C@H](O[C@H]2O[C@H](CO)[C@H](O)[C@H](O)[C@H]2NC(C)=O)[C@H]1O[C@@H]1O[C@@H](C)[C@@H](O)[C@@H](O)[C@@H]1O)OC(=O)CCCCCCC/C=C\CCCCCCCC [Atri-sp-Ad-DOPE (I)]
- Difference in transformation between sterile-filtered (0.2 μm) and unfiltered preparation [1]: no significant difference
- Column agglutination ([1]; sterile-filtered): 0
- Column agglutination ([1]; unfiltered): 0
- Score (tube serology) ([2]; 1:2, pre-trans conc 0.03 mg/mL): 0
- Score (tube serology) ([2]; 1:2, pre-trans conc 0.05 mg/mL): 0
- Score (tube serology) ([2]; 1:2, pre-trans conc 0.08 mg/mL): 0
- Score (tube serology) ([2]; neat, pre-trans conc 0.03 mg/mL): 0
- Score (tube serology) ([2]; neat, pre-trans conc 0.05 mg/mL): 0
- Score (tube serology) ([2]; neat, pre-trans conc 0.08 mg/mL, 37° C. 1 h): 0
- Albaclone anti-A, Tube ([3]; 0.01 mg/mL): 0
- Bioclone anti-A, Tube ([3]; 0.01 mg/mL): 0
- Albaclone anti-A, Tube ([3]; 0.02 mg/mL): 0
- Bioclone anti-A, Tube ([3]; 0.02 mg/mL): 0
- Agglutination, manual tube serology, Albaclone anti-A ([3]; 0.025 mg/mL, Day 8, Alsevers): w+
- Agglutination, manual tube serology, Albaclone anti-A ([3]; 0.025 mg/mL, Day 8, Cellstab): vw
- Agglutination, manual tube serology, Albaclone anti-A ([3]; 0.025 mg/mL, Day 15, Alsevers): 0
- Agglutination, manual tube serology, Bioclone anti-A ([3]; 0.025 mg/mL, Day 15, Alsevers): Vw
- Agglutination, manual tube serology, Albaclone anti-A ([3]; 0.025 mg/mL, Day 15, Cellstab): 0
- Agglutination, manual tube serology, Albaclone anti-A ([3]; 0.025 mg/mL, Day 22, Alsevers): 0
- Agglutination, manual tube serology, Bioclone anti-A ([3]; 0.025 mg/mL, Day 22, Alsevers): w+
- Agglutination, manual tube serology, Albaclone anti-A ([3]; 0.025 mg/mL, Day 44, Cellstab): w+
- Agglutination, manual tube serology, Bioclone anti-A ([3]; 0.025 mg/mL, Day 44, Cellstab): w+
- Albaclone anti-A, Tube ([3]; 0.03 mg/mL): 0
- Bioclone anti-A, Tube ([3]; 0.03 mg/mL): w+
- Albaclone anti-A, Tube ([3]; 0.04 mg/mL): w+
- Albaclone anti-A, Tube ([3]; 0.05 mg/mL): w+
- Agglutination, manual tube serology, Albaclone anti-A ([3]; 0.05 mg/mL, Day 15, Cellstab): w+
- Albaclone anti-A, Diamed ([4]; 0.01 mg/mL): 0
- Bioclone anti-A, Diamed ([4]; 0.01 mg/mL): 0
- Agglutination, Diamed gel-cards, Albaclone anti-A ([4]; Day 2, Alsevers): 0
- Agglutination, Diamed gel-cards, Albaclone anti-A ([4]; Day 2, Cellstab): 0
- Agglutination, Diamed gel-cards, Albaclone anti-A ([4]; Day 8, Alsevers): 0
- Agglutination, Diamed gel-cards, Albaclone anti-A ([4]; Day 8, Cellstab): 0
- Agglutination, Diamed gel-cards, Albaclone anti-A ([4]; Day 15, Alsevers): 0
- Agglutination, Diamed gel-cards, Albaclone anti-A ([4]; Day 15, Cellstab): 0
- Agglutination, Diamed gel-cards, Albaclone anti-A ([4]; Day 22, Alsevers): 0
- Agglutination, Diamed gel-cards, Bioclone anti-A ([4]; Day 22, Alsevers): w+
- Agglutination, Diamed gel-cards, Albaclone anti-A ([4]; Day 22, Cellstab): 0
- Agglutination, Diamed gel-cards, Albaclone anti-A ([4]; Day 29, Alsevers): 0
- Agglutination, Diamed gel-cards, Bioclone anti-A ([4]; Day 29, Alsevers): w+
- Agglutination, Diamed gel-cards, Albaclone anti-A ([4]; Day 29, Cellstab): 0
- Agglutination, Diamed gel-cards, Albaclone anti-A ([4]; Day 43, Alsevers): w+
- Agglutination, Diamed gel-cards, Albaclone anti-A ([4]; Day 43, Cellstab): 0
- Agglutination, Diamed gel-cards, Albaclone anti-A ([4]; Day 50, Alsevers): w+
- Agglutination, Diamed gel-cards, Albaclone anti-A ([4]; Day 50, Cellstab): 0
- Agglutination, Diamed gel-cards, Albaclone anti-A ([4]; Day 57, Cellstab): 0
- Agglutination, Diamed gel-cards, Bioclone anti-A ([4]; Day 57, Cellstab): w+
- Agglutination, Diamed gel-cards, Albaclone anti-A ([4]; Day 63, Cellstab): 0
- Agglutination, Diamed gel-cards, Bioclone anti-A ([4]; Day 63, Cellstab): 0
- Agglutination, Diamed gel-cards, Albaclone anti-A ([4]; Day 71, Cellstab): 0
- Agglutination, Diamed gel-cards, Bioclone anti-A ([4]; Day 71, Cellstab): 0
- Agglutination, Diamed gel-cards, Albaclone anti-A ([4]; Day 86, Cellstab): 0
- Agglutination, Diamed gel-cards, Bioclone anti-A ([4]; Day 86, Cellstab): 0
- Agglutination score ([5]; 10 μg/mL, Alba anti-A, first series): 0
- Agglutination score ([5]; 10 μg/mL, Bio anti-A, first series): 0
- Agglutination score ([5]; 20 μg/mL, Alba anti-A, first series): 0
- Agglutination score ([5]; 20 μg/mL, Bio anti-A, first series): 0
- Agglutination score ([5]; 30 μg/mL, Alba anti-A, first series): 0
- Agglutination score ([5]; 30 μg/mL, Bio anti-A, first series): w+
- Agglutination score ([5]; 40 μg/mL, Alba anti-A, first series): w+
- Agglutination score ([5]; 50 μg/mL, Alba anti-A, first series): w+
- Agglutination score ([5]; 1000 μg/mL, DBA): 0
